# Assay results published in article PMC11562385 (RSC Chemical Biology, 2024).
# Read-outs that look alike come from different tables or passages of the source. Square brackets hold non-standard residues; d marks the D form. Peptide text beside a SMILES is read from it. * marks the point of attachment. Dab = NCC[C@H](N)C(=O)O; X1 = CN(C)C/C=C/C(=O)*
# Legend:
# PD1:PDL1 interaction = target: T1, PD1:PDL1 interaction (Homo sapiens, UniProt Q15116); assay: PD1/PDL1 immunoblocking ELISA (BPS Bioscience kit cat # 72005); format: binding; conditions: for LE (ligand efficiency): LE = -RTln(EC50)/HA, HA = non-hydrogen atoms omitting the strap (RWV•••VWE)
# T1 construct: purchased BPS Bioscience 72005
# T1 sequence (Q15116 25-167 limits assumed): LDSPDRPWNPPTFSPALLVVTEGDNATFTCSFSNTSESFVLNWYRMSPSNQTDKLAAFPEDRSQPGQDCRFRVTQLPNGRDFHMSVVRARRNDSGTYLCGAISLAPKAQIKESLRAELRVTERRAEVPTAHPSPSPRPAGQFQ
# Procedure: Original loops with Phe/Trp and their Gly-derived analogs. Experimental EC50 values from inhibitory dose–response curves. Error bars indicate the mean ± SD, (n = 3). […]
# SDS -Pages, buffers, and stain were purchased from Fisher
# 8. Immunoblocking ELISA Assay
# Peptide inhibitor stock solutions were prepared in the concentration range of approximately 1-5 mM in DMSO. […]
# plate was then washed and blocked with blocking buffer for 1 h at room temperature. Inhibitor solutions (ranging from 0.01 to 100 μM) and a blank solution (DMSO/PBS buffer) were added to designated wells. To initiate the […]
# inhibitor solutions. After a 2 h incubation at room temperature, the plate was washed and blocked again for 10 min. Streptavidin-HRP (diluted at 1 : 1000) was added and incubated for 1 h at room temperature with gentle shaking. The plate was washed and blocked once more for 10 min. ELISA ECL substrate was added, and the resulting chemoluminescence was immediately measured in a luminometer (FLUOstar OPTIMA, BMG Labtech).
# The luminescence value of the blank was subtracted from all readings according to the manufacturer's
# [1] = Variable-temperature CD melting curves (CD-melts at 228±2 nm and 202±2 nm), individual and global two-state fits; format: physicochemical; parameters: DSo: unit not given here; conditions: for ΔGF0: CD-melt at 228±2 nm, individual two-state Gibbs-Helmholtz fit (Origin 9.0), phosphate buffer 15 mM pH 6.5 ± MeOH; for -TΔSF0 / ΔCpF0 / ΔHF0 / ΔHm: as E16; for VT-CD %-fold: folded fraction (χF) at 25 °C from CD-melts, (R) regular / (B) bulged fold; for VT-CD %-fold / VT-CD Tm (°C): phosphate buffer 15 mM pH 6.5, up to 20% MeOH; for VT-CD Tm (°C): melting temperature from CD-melts
# Procedure: Recently, our laboratory brought forward a novel synthetic technology for the synthesis of acyclic β-hairpins with long loops. […] To compare hairpins’ stability, both regular (R) and bulged (B) scaffolds were crafted around a flexible 10-residue model loop (G4K2G4) and analyzed by CD (circular dichroism) spectroscopy (Fig. 2(A), see ESI, ^† Table S5). The […] structure of these model scaffolds 1avs.2a in solution were recorded in the far-UV CD spectra. […] The CD-exciton intensity was therefore used as a global probe to determine the %-folding of ADAPTins and to obtain melting curves corresponding to the hairpin fraying mechanism upon a gradual increase of temperature (0 to 95 °C).[68] […] In addition, NMR (nuclear magnetic resonance) chemical shifts were measured to determine variations in backbone […] structures (Fig. 2(B)). Secondary chemical shift deviations (CSDs) were calculated against random coil values[69] for both ADAPTin scaffolds 1vs.2 to verify that the hairpins were folded and if any variation of conformational rigidity exist within the loops. […]
# Mass Spectrometer coupled to a Vanquish™ Neo UHPLC System (Thermo Scientific™). Peptide solutions for circular dichroism (CD) were prepared within a concentration range of 15-120 µM in a phosphate buffer (15 mM, […]
# measured accurately using a JASCO V-670 spectrophotometer relied on the combined molar absorptivity of Trp (ε280 = 5580 M-1 .cm-1 per Trp) and Tyr (ε280 = 1280 M-1 .cm-1 per Tyr) to determine each sample's concentration.
# CD spectra were recorded using a JASCO J-810 Spectropolarimeter equipped with a temperature controller module JASCO PFD-425S. Raw CD melting curves were processed in SpectraGryph, and fitting was performed in OriginPro 9.0 (Originlab Corporation, U.S.A.). NMR samples were prepared by reconstituting freeze -dried peptides (~ 1-5 mg) in mixture of water and DMSO -d6 (90:10 v/v) using 2,2-dimethyl-2-silapentane-5-sulfonate (DSS) as internal standard for chemical shifts (0 ppm), and spectra were recorded at 291 K (18 °C) unless otherwise stated. Chemical shifts ( δ) are reported in ppm. Samples for NMR experiments were prepared in a range of 3-10 mM of peptide in solution unless otherwise noted.
# [2] = ELISA, mean of three independent experiments, read-out: EC50 Value
# [3] = Table S5, individual fit, 228±2 nm
# [4] = Table S5, individual fit, 291 K
# [5] = Table S5, individual fit, 310 K
# [6] = two-state fit of the CD melt θ - θcoil(95) vs T, 0-95 °C, l 0.1 cm, peptide c 3.2e-5 to 5e-5 M
# [7] = variable-temperature CD melt 0-95 °C, θ - θcoil(95) vs T, l = 0.1 cm, individual two-state fit
Structure (SMILES),EC50 (PD1:PDL1 interaction; [2]) [µM],LE (ligand efficiency) (PD1:PDL1 interaction),ΔGF0 ([1]; 0-95 °C) [kcal/mol],"Tm [1, 3] [oC]","Hairpin %-fold 291K [1, 4] [%]","Hairpin %-fold 310K [1, 5] [%]",-TΔSF0 [1] [kcal/mol],ΔCpF0 [1] [cal.deg-1.mol-1],ΔHF0 [1] [kcal/mol],ΔHm [1] [kcal/mol],VT-CD %-fold [1],VT-CD Tm (°C) [1] [°C],also measured
CC(C)[C@H](NC(=O)CNC(=O)[C@H](CO)NC(=O)[C@H](CO)NC(=O)[C@H](CC(=O)O)NC(=O)[C@@H]1CCCN1C(=O)[C@H](CO)NC(=O)[C@H](Cc1c[nH]c2ccccc12)NC(=O)[C@@H](NC(=O)[C@H](Cc1c[nH]c2ccccc12)NC(=O)[C@@H](N)CCCNC(=N)N)C(C)C)C(=O)N[C@@H](C)C(=O)N[C@@H](Cc1ccc(O)cc1)C(=O)N[C@@H](Cc1c[nH]c2ccccc12)C(=O)N[C@H](C(=O)N[C@@H](Cc1c[nH]c2ccccc12)C(=O)N[C@@H](CCC(=O)O)C(=O)O)C(C)C [1e] (H-RWVWSPDSSGVAYWVWE-OH),0.27,0.10,-0.90 ± 0.01,58.3,85 ± 1,74 ± 1,5.60 ± 0.06,-148 ± 4,-6.50 ± 0.06,-11.5 ± 0.05,85% (R),58,"DHm (fitted value, results from OriginPro) [1, 6]: -11.4534 kcal/mol; Tm (fitted value, results from OriginPro) [1, 6]: 331.438 K"
CSCC[C@H](NC(=O)[C@H](CC(=O)O)NC(=O)[C@H](Cc1ccccc1)NC(=O)[C@H](CCCNC(=N)N)NC(=O)[C@H](Cc1ccc(O)cc1)NC(=O)[C@H](CC(=O)O)NC(=O)[C@H](CCCNC(=N)N)NC(=O)[C@H](CCCNC(=N)N)NC(=O)[C@H](C)NC(=O)[C@@H](NC(=O)[C@H](Cc1c[nH]c2ccccc12)NC(=O)[C@@H](N)CCCNC(=N)N)C(C)C)C(=O)NCC(=O)N[C@@H](Cc1ccccc1)C(=O)N[C@@H](CC(=O)O)C(=O)N[C@@H](Cc1ccc(O)cc1)C(=O)N[C@@H](Cc1c[nH]c2ccccc12)C(=O)N[C@@H](Cc1c[nH]cn1)C(=O)N[C@@H](Cc1c[nH]c2ccccc12)C(=O)N[C@@H](CCC(=O)O)C(=O)O [2e] (H-RWVARRDYRFDMGFDYWHWE-OH),,0.06,0.088 ± 0.02,3.96,48 ± 1,42 ± 1,2.40 ± 0.02,-107±5,-2.31 ± 0.03,-0.070 ± 0.6,48% (B),4,"%fold 291K ([1]; fraction folded at 291 K from two-state fit of CD-melt): 48%; DHm (fitted value, OriginPro two-state fit of CD-melt) [1, 7]: -0.0700474 kcal/mol; Tm (fitted value, OriginPro two-state fit of CD-melt) [1, 7]: 277.107 K"
CSCC[C@H](NC(=O)[C@H](CC(=O)O)NC(=O)CNC(=O)[C@H](CCCNC(=N)N)NC(=O)[C@H](Cc1ccc(O)cc1)NC(=O)[C@H](CC(=O)O)NC(=O)[C@H](CCCNC(=N)N)NC(=O)[C@H](Cc1c[nH]c2ccccc12)NC(=O)[C@@H](NC(=O)[C@H](Cc1c[nH]c2ccccc12)NC(=O)[C@@H](N)CCCNC(=N)N)C(C)C)C(=O)NCC(=O)N[C@@H](Cc1ccccc1)C(=O)N[C@@H](CC(=O)O)C(=O)N[C@@H](Cc1c[nH]c2ccccc12)C(=O)N[C@H](C(=O)N[C@@H](Cc1c[nH]c2ccccc12)C(=O)N[C@@H](CCC(=O)O)C(=O)O)C(C)C [1b] (H-RWVWRDYRGDMGFDWVWE-OH),7.08,0.06,-0.64 ± 0.01,46.9,81 ± 1,62 ± 1,8.29 ± 0.02,-41 ± 1,-8.94 ± 0.02,-9.84 ± 0.01,81% (R),47,"EC50 (PD1:PDL1 interaction; [PD1•PDL1] blocking EC50, Fig. 3B, cut-off bars of congeneric pairs (Phe/Trp vs Gly), n = 3): > 5 µM; DCp (fitted value) ([1]; CD-melt of 1b, c 3.4e-5 M, l 0.1 cm, two-state fit in OriginPro): -40.77 cal/(deg.mol); DHm (fitted value) ([1]; CD-melt of 1b, c 3.4e-5 M, l 0.1 cm, two-state fit in OriginPro, enthalpy at Tm): -9.84462 kcal/mol; cF(18 oC), fraction folded ([1]; CD-melt of 1b, two-state fit in OriginPro, 18 °C): 81%; TDSo ([1]; CD-melt of 1b, two-state fit in OriginPro, standard-state entropic term): -8.2949 kcal/mol; DHo ([1]; CD-melt of 1b, two-state fit in OriginPro, standard-state folding enthalpy): -8.9431 kcal/mol; DSo ([1]; CD-melt of 1b, two-state fit in OriginPro, standard-state folding entropy): -27.84; DGo ([1]; CD-melt of 1b, two-state fit in OriginPro, standard-state folding free energy): -0.6482 kcal/mol; Tm ([1]; CD-melt of 1b, two-state fit in OriginPro, the fitted Tm restated without a unit (apparently °C)): 47 °C; %fold 291K ([1]; CD-melt of 1b, two-state fit, 291 K): 81%; %fold 310K ([1]; CD-melt of 1b, two-state fit, 310 K): 62%; Tm (fitted value) ([1]; CD-melt of 1b, θ - θcoil(95) vs T 0-95 °C, c 3.4e-5 M, l 0.1 cm, two-state fit in OriginPro): 320.113 K; TM (°C) ([1]; Fig. 2, CD-melts of regular vs bulged scaffolds): 47 °C"
CC(C)[C@H](NC(=O)[C@H](Cc1c[nH]c2ccccc12)NC(=O)[C@@H](N)CCCNC(=N)N)C(=O)N[C@@H](C)C(=O)N[C@@H](CCCNC(=N)N)C(=O)N[C@@H](CCCNC(=N)N)C(=O)N[C@@H](CC(=O)O)C(=O)N[C@@H](Cc1ccc(O)cc1)C(=O)N[C@@H](CCCNC(=N)N)C(=O)N[C@@H](Cc1ccccc1)C(=O)N[C@@H](CC(=O)O)C(=O)N[C@@H](CCNC(=O)/C=C/CN(C)C)C(=O)NCC(=O)N[C@@H](Cc1ccccc1)C(=O)N[C@@H](CC(=O)O)C(=O)N[C@@H](Cc1ccc(O)cc1)C(=O)N[C@@H](Cc1c[nH]c2ccccc12)C(=O)N[C@H](C(=O)N[C@@H](Cc1c[nH]c2ccccc12)C(=O)N[C@@H](CCC(=O)O)C(=O)O)C(C)C [2cc] (H-RWVARRDYRFD[Dab](X1)GFDYWVWE-OH; N-terminus assumed),,0.13,-0.93 ± 0.002,48.7,87 ± 1,70 ± 1,8.50 ± 0.04,-268 ± 2,-9.43 ± 0.04,-15.8 ± 0.04,,,"Tm 228 nm Glob. ([1]; global fit (shared maximum molar ellipticity), 228 nm): 51.7 oC; Tm 202 nm Glob. ([1]; global fit, 202 nm): 9.7 oC; χF (291 K) 202 nm Glob. ([1]; global fit, 202 nm, 291 K): 47%; χF (291 K) 228 nm Glob. ([1]; global fit, 228 nm, 291 K): 95%; χF (291 K) 202 nm Indiv. ([1]; individual fit, 202 nm, 291 K): 83%; χF (291 K) 228 nm Indiv. ([1]; individual fit, 228 nm, 291 K): 88%; Tm 228 nm Indiv. ([1]; individual fit, exciton band 228 nm): 49.8 oC; Tm 202 nm Indiv. ([1]; individual fit, β-bulge band 202 nm): 44.3 oC; DHm (fitted value, OriginPro) ([1]; two-state fit of the CD melt (θ - θcoil(95) vs T, 0-95 °C), l 0.1 cm, enthalpy of folding at Tm): -15.8096 kcal/mol"
